Consider 17 compounds from ChEMBL document CHEMBL1123299, “New antiarrhythmic agents. 2,2,5,5-Tetramethyl-3-pyrroline-3-carboxamides and 2,2,5,5-tetramethylpyrrolidine-3-carboxamindes” (J Med Chem, 1986).

The species entered for series [1] is Rattus norvegicus. Description: Relative potency with reference to quinidine. It counts as functional.
Series [2] relates to Rattus norvegicus. Kind of series: Effective dose against aconitine-induced arrhythmia after intravenal administration in anesthetized rats. It counts as functional.
In series [3] the test system is Rattus norvegicus. Kind of series: Incidence of arrhythmias in rats after a intravenal administration at 4 mg/kg, expressed as no. of positive cases out of no. of tested cases (10). It counts as functional.
A short description of series [4]: Acute toxicity determined after intravenal administration in mice. The class given is organism-based. Particulars: mouse, in vivo, iv.

`COc1cccc(CNCCCNC(=O)C2=CC(C)(C)NC2(C)C)c1O` displayed a Relative potency in the series filed under Rattus norvegicus [1] of 3.5. In the series on Rattus norvegicus [2], this compound registered an ED150 of 3.4 mg/kg. Further, the “No. of positive cases” value in the series on Rattus norvegicus [3] amounted to 10. The 50% lethal dose (LD50) in series [4] is 26 mg/kg.

The compound `COc1cc(CNCCCNC(=O)C2=CC(C)(C)NC2(C)C)cc(OC)c1OC` came in with a Relative potency in the series listed under Rattus norvegicus [1] of 3.1. This compound also gave an ED150 with Rattus norvegicus [2] of 3.8 mg/kg. Moreover, the “No. of positive cases” value in the series on Rattus norvegicus [3] was 9. Besides, the LD50 in series [4] worked out at 22 mg/kg.

As to `Cc1cccc(C)c1NC(=O)C(C)NCCCNC(=O)C1=CC(C)(C)NC1(C)C` (stereo not given), the Relative potency in the series listed under Rattus norvegicus [1] is 9.1. For the same compound, the ED150 with Rattus norvegicus [2] was determined as 1.3 mg/kg. Further, the “No. of positive cases” value with Rattus norvegicus [3] was found to be 10. Further, the 50% lethal dose (LD50) in series [4] amounted to 26 mg/kg.

In the series filed under Rattus norvegicus [1], `C=CCc1ccc(OCC(=O)NCCNC(=O)C2=CC(C)(C)NC2(C)C)c(OC)c1` gave a Relative potency of 1.9. Moreover, the ED150 with Rattus norvegicus [2] was determined as 6.3 mg/kg. Also, in the series on Rattus norvegicus [3], the “No. of positive cases” value came to 7. Moreover, the LD50 in series [4] turned out to be 11 mg/kg.

`CC1(C)C=C(C(=O)NCCNCc2ccccc2O)C(C)(C)N1` showed a Relative potency in the series listed under Rattus norvegicus [1] of 11.9. Besides, the ED150 in the series with Rattus norvegicus [2] is 1 mg/kg. For the same compound, in the series with Rattus norvegicus [3], the “No. of positive cases” value is listed as 10. In addition, the 50% lethal dose (LD50) in series [4] came to 30 mg/kg.

Take `C/C=C/c1ccc(OCC(=O)NCCNC(=O)C2=CC(C)(C)NC2(C)C)c(OC)c1`: the Relative potency in the series listed under Rattus norvegicus [1] worked out at 2.9. Further, the “No. of positive cases” value with Rattus norvegicus [3] is 7. This compound came in with a median lethal dose (LD50) in series [4] of 18 mg/kg.

Consider `CC1(C)C=C(C(=O)NCCCNCc2ccc(Oc3ccccc3)cc2)C(C)(C)N1`, for which the Relative potency in the series filed under Rattus norvegicus [1] is listed as 9.2. The same compound registered an ED150 with Rattus norvegicus [2] of 1.3 mg/kg. Moreover, the “No. of positive cases” value in the series with Rattus norvegicus [3] came to 10. Further, in series [4], the LD50 was 23 mg/kg.

Take `COc1cccc(CNCCCNC(=O)C2=CC(C)(C)NC2(C)C)c1OCc1ccccc1`: the Relative potency in the series listed under Rattus norvegicus [1] worked out at 56.7. In addition, in the series on Rattus norvegicus [2], the ED150 came out at 0.21 mg/kg. Further, the “No. of positive cases” value with Rattus norvegicus [3] stood at 10. For the same compound, the LD50 in series [4] was found to be 6.2 mg/kg.

Regarding `CC1(C)C=C(C(=O)NCCCNCc2cccs2)C(C)(C)N1`, the Relative potency in the series listed under Rattus norvegicus [1] was 2.2. Also, the ED150 with Rattus norvegicus [2] was found to be 5.3 mg/kg. The “No. of positive cases” value in the series with Rattus norvegicus [3] was 7. In series [4], this compound registered an LD50 of 65 mg/kg.

Compound `COc1cc(OCc2ccccc2)ccc1CNCCCNC(=O)C1=CC(C)(C)NC1(C)C` had a Relative potency in the series listed under Rattus norvegicus [1] of 17.2. The same compound gave an ED150 in the series with Rattus norvegicus [2] of 0.69 mg/kg. For the same compound, in the series on Rattus norvegicus [3], the “No. of positive cases” value was found to be 10. This compound returned a median lethal dose (LD50) in series [4] of 13 mg/kg.

The compound `CC1(C)C=C(C(=O)NCCCNC(=O)COc2ccccc2)C(C)(C)N1` displayed a Relative potency in the series listed under Rattus norvegicus [1] of 4.6. The ED150 in the series on Rattus norvegicus [2] was determined as 2.6 mg/kg. Moreover, the “No. of positive cases” value in the series with Rattus norvegicus [3] was found to be 10. In series [4], this compound came in with an LD50 of 49 mg/kg.

The compound `C/C=C/c1ccc(OCC(=O)NCC(C)(C)CNC(=O)C2=CC(C)(C)NC2(C)C)c(OC)c1` showed a Relative potency in the series filed under Rattus norvegicus [1] of 3.1. Besides, the ED150 in the series on Rattus norvegicus [2] is 3.9 mg/kg. Further, in the series on Rattus norvegicus [3], the “No. of positive cases” value came to 6. Moreover, the median lethal dose (LD50) in series [4] was determined as 31 mg/kg.

The compound `CC1(C)C=C(C(=O)NCCCNC(=O)CSc2ccccc2)C(C)(C)N1` registered a Relative potency in the series listed under Rattus norvegicus [1] of 1.7. The compound further registered an ED150 in the series on Rattus norvegicus [2] of 6.9 mg/kg. For the same compound, the “No. of positive cases” value in the series with Rattus norvegicus [3] was determined as 7.

In the series filed under Rattus norvegicus [1], `C/C=C/c1ccc(OC(C)C(=O)NCCCNC(=O)C2=CC(C)(C)NC2(C)C)c(OC)c1` (stereo not given) gave a Relative potency of 4.4. For the same compound, the “No. of positive cases” value with Rattus norvegicus [3] is given as 7. The compound also came in with an LD50 in series [4] of 14 mg/kg.

In the series listed under Rattus norvegicus [1], `CC1(C)C=C(C(=O)NCCNCc2ccc(Cl)cc2)C(C)(C)N1` displayed a Relative potency of 2.2. This compound also came in with an ED150 in the series on Rattus norvegicus [2] of 5.4 mg/kg. For the same compound, the “No. of positive cases” value with Rattus norvegicus [3] was determined as 5. In series [4], this compound gave an LD50 of 82 mg/kg.

Regarding `C=CCOc1ccc(CNCCCNC(=O)C2=CC(C)(C)NC2(C)C)cc1OC`, the Relative potency in the series filed under Rattus norvegicus [1] is 5.4. Also, the ED150 with Rattus norvegicus [2] was 2.2 mg/kg. The “No. of positive cases” value in the series with Rattus norvegicus [3] is 10. The same compound had an LD50 in series [4] of 21 mg/kg.

In the series listed under Rattus norvegicus [1], `CC1(C)CC(C(=O)NCCCNCc2ccccc2Cl)C(C)(C)N1` (stereo not given) returned a Relative potency of 4.9. In the series with Rattus norvegicus [2], this compound showed an ED150 of 2.4 mg/kg. For the same compound, the “No. of positive cases” value in the series with Rattus norvegicus [3] stood at 7. For the same compound, the 50% lethal dose (LD50) in series [4] was determined as 31 mg/kg.
